ChEMBL document CHEMBL3351292, “Structure-Based Design and Synthesis of Potent Cyclic Peptides Inhibiting the YAP-TEAD Protein-Protein Interaction” (ACS Med Chem Lett, 2014)
Where a SMILES comes first, the peptide text is derived from it.

Biological target: Transcriptional coactivator YAP1/Transcriptional enhancer factor TEF-1 (Homo sapiens) (UniProt P46937+P28347)
Test: Inhibition of YAP/ GST-TEAD1 (unknown origin) interaction at 50 uM by surface plasmon resonance assay
Format: protein assay

Transcriptional coactivator YAP1/Transcriptional enhancer factor TEF-1 (Homo sapiens), sequence (P28347 whole entry, looked up): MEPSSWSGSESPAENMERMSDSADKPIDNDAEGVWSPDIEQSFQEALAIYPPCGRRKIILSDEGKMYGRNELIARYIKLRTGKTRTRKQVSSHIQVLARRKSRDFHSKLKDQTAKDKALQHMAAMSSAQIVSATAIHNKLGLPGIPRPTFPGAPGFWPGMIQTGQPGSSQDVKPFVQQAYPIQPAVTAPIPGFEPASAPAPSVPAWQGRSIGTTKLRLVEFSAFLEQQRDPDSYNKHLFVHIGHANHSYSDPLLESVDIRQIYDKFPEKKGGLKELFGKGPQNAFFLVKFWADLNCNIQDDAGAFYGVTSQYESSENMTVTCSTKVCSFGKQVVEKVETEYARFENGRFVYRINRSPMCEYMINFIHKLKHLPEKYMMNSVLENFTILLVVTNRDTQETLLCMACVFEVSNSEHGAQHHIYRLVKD
Transcriptional coactivator YAP1/Transcriptional enhancer factor TEF-1 (Homo sapiens), sequence (P46937 whole entry, looked up): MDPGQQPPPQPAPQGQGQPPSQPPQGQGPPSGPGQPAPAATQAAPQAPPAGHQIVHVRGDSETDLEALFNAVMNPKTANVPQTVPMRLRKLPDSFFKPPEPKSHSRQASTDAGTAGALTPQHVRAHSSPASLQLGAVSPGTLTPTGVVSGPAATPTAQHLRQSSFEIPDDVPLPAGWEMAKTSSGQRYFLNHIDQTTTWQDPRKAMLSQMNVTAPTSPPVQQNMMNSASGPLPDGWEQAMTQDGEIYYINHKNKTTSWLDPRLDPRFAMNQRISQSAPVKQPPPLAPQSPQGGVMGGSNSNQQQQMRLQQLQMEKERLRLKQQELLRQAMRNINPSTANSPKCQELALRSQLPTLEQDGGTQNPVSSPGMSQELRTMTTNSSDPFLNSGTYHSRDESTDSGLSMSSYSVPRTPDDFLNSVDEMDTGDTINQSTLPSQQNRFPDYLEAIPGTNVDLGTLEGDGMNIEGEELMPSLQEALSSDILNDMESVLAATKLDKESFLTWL

Structure (SMILES)	inhibition [%]
CSCC[C@H](NC(=O)[C@@H]1CCCN1C(=O)[C@@H](NC(=O)[C@@H](NC(=O)[C@H](CCC(N)=O)NC(=O)[C@@H]1CCCN1C(C)=O)[C@@H](C)O)C(C)C)C(=O)N[C@@H](CCCNC(=N)N)C(=O)N[C@@H](CC(C)C)C(=O)N[C@@H](CCCNC(=N)N)C(=O)N[C@@H](CCCCN)C(=O)N[C@@H](CC(C)C)C(=O)N1CCC[C@H]1C(=O)N[C@@H](CC(=O)O)C(=O)N[C@@H](CO)C(=O)N[C@@H](Cc1ccccc1)C(=O)N[C@@H](C)C(=O)N[C@@H](CCCCN)C(=O)N1CCC[C@H]1C(=O)N1CCC[C@H]1C(=O)N[C@@H](CCC(=O)O)C(N)=O (Ac-PQTVPMRLRKLPDSFAKPPE-NH2)	9.4
CSCC[C@H](NC(=O)[C@@H]1CCCN1C(=O)[C@@H](NC(=O)[C@@H](NC(=O)[C@H](CCC(N)=O)NC(=O)[C@@H]1CCCN1C(C)=O)[C@@H](C)O)C(C)C)C(=O)N[C@@H](CCCNC(=N)N)C(=O)N[C@@H](CC(C)C)C(=O)N[C@@H](CCCNC(=N)N)C(=O)N[C@@H](CCCCN)C(=O)N[C@@H](CC(C)C)C(=O)N1CCC[C@H]1C(=O)N[C@@H](CC(=O)O)C(=O)N[C@@H](CO)C(=O)N[C@@H](Cc1ccccc1)C(=O)N[C@@H](Cc1ccccc1)C(=O)N[C@@H](C)C(=O)N1CCC[C@H]1C(=O)N1CCC[C@H]1C(=O)N[C@@H](CCC(=O)O)C(N)=O (Ac-PQTVPMRLRKLPDSFFAPPE-NH2)	42
CSCC[C@H](NC(=O)[C@@H]1CCCN1C(=O)[C@@H](NC(=O)[C@@H](NC(=O)[C@H](CCC(N)=O)NC(=O)[C@@H]1CCCN1C(C)=O)[C@@H](C)O)C(C)C)C(=O)N[C@@H](CCCNC(=N)N)C(=O)N[C@@H](CC(C)C)C(=O)N[C@@H](CCCNC(=N)N)C(=O)N[C@@H](CCCCN)C(=O)N[C@@H](CC(C)C)C(=O)N1CCC[C@H]1C(=O)N[C@@H](CC(=O)O)C(=O)N[C@@H](CO)C(=O)N[C@@H](Cc1ccccc1)C(=O)N[C@@H](Cc1ccccc1)C(=O)N[C@@H](CCCCN)C(N)=O (Ac-PQTVPMRLRKLPDSFFK-NH2)	14
CSCC[C@H](NC(=O)[C@@H]1CCCN1C(=O)[C@@H](NC(=O)[C@@H](NC(=O)[C@H](CCC(N)=O)NC(=O)[C@@H]1CCCN1C(C)=O)[C@@H](C)O)C(C)C)C(=O)N[C@@H](CCCNC(=N)N)C(=O)N[C@@H](CC(C)C)C(=O)N[C@@H](CCCNC(=N)N)C(=O)N[C@@H](CCCCN)C(=O)N[C@@H](CC(C)C)C(=O)N1CCC[C@H]1C(=O)N[C@@H](CC(=O)O)C(=O)N[C@@H](CO)C(=O)N[C@@H](Cc1ccccc1)C(=O)N[C@@H](Cc1ccccc1)C(=O)N[C@@H](CCCCN)C(=O)N[C@@H](C)C(=O)N1CCC[C@H]1C(=O)N[C@@H](CCC(=O)O)C(N)=O (Ac-PQTVPMRLRKLPDSFFKAPE-NH2)	47

Now from value to molecule:

inhibition [%]	Structure (SMILES)
5.4	CSCC[C@H](NC(=O)[C@@H]1CCCN1C(=O)[C@@H](NC(=O)[C@@H](NC(=O)[C@H](CCC(N)=O)NC(=O)[C@@H]1CCCN1C(C)=O)[C@@H](C)O)C(C)C)C(=O)N[C@@H](CCCNC(=N)N)C(=O)N[C@@H](CC(C)C)C(=O)N[C@@H](CCCNC(=N)N)C(=O)N[C@@H](CCCCN)C(=O)N[C@@H](CC(C)C)C(=O)N1CCC[C@H]1C(=O)N[C@@H](CC(=O)O)C(=O)N[C@@H](CO)C(=O)N[C@@H](Cc1ccccc1)C(N)=O (Ac-PQTVPMRLRKLPDSF-NH2)
13	CSCC[C@H](NC(=O)[C@@H]1CCCN1C(=O)[C@@H](NC(=O)[C@@H](NC(=O)[C@H](CCC(N)=O)NC(=O)[C@@H]1CCCN1C(C)=O)[C@@H](C)O)C(C)C)C(=O)N[C@@H](CCCNC(=N)N)C(=O)N[C@@H](CC(C)C)C(=O)N[C@@H](CCCNC(=N)N)C(=O)N[C@@H](CCCCN)C(=O)N[C@@H](CC(C)C)C(=O)N1CCC[C@H]1C(=O)N[C@@H](CC(=O)O)C(=O)N[C@@H](CO)C(=O)N[C@@H](Cc1ccccc1)C(=O)N[C@@H](Cc1ccccc1)C(N)=O (Ac-PQTVPMRLRKLPDSFF-NH2)
